The values that follow come from PMC6197744, “Triazolo[4,5-d]pyrimidines as Validated General Control Nonderepressible 2 (GCN2) Protein Kinase Inhibitors Reduce Growth of Leukemia Cells” (Computational and Structural Biotechnology Journal, 2018).

Values after ≈ are worked out from the molar mass of the structure shown. Read-outs that look alike come from different tables or passages of the source.

The term IC50 denotes the concentration needed to halve the response being measured. As usually defined, the inhibition is the drop in the measured response relative to a control, in per cent. One may read the solubility as the concentration that dissolves in the medium under given conditions. One may read the Papp as the rate of passage across a membrane or cell layer, normalised by area and donor concentration. Low readings indicate slow passage, high ones fast passage.

The target of one data set is T1, human GCN2 (Homo sapiens, UniProt Q9P2K8).
T1 construct: purchased Reaction Biology Corporation (Malvern, PA)
T1 sequence (Q9P2K8 whole entry): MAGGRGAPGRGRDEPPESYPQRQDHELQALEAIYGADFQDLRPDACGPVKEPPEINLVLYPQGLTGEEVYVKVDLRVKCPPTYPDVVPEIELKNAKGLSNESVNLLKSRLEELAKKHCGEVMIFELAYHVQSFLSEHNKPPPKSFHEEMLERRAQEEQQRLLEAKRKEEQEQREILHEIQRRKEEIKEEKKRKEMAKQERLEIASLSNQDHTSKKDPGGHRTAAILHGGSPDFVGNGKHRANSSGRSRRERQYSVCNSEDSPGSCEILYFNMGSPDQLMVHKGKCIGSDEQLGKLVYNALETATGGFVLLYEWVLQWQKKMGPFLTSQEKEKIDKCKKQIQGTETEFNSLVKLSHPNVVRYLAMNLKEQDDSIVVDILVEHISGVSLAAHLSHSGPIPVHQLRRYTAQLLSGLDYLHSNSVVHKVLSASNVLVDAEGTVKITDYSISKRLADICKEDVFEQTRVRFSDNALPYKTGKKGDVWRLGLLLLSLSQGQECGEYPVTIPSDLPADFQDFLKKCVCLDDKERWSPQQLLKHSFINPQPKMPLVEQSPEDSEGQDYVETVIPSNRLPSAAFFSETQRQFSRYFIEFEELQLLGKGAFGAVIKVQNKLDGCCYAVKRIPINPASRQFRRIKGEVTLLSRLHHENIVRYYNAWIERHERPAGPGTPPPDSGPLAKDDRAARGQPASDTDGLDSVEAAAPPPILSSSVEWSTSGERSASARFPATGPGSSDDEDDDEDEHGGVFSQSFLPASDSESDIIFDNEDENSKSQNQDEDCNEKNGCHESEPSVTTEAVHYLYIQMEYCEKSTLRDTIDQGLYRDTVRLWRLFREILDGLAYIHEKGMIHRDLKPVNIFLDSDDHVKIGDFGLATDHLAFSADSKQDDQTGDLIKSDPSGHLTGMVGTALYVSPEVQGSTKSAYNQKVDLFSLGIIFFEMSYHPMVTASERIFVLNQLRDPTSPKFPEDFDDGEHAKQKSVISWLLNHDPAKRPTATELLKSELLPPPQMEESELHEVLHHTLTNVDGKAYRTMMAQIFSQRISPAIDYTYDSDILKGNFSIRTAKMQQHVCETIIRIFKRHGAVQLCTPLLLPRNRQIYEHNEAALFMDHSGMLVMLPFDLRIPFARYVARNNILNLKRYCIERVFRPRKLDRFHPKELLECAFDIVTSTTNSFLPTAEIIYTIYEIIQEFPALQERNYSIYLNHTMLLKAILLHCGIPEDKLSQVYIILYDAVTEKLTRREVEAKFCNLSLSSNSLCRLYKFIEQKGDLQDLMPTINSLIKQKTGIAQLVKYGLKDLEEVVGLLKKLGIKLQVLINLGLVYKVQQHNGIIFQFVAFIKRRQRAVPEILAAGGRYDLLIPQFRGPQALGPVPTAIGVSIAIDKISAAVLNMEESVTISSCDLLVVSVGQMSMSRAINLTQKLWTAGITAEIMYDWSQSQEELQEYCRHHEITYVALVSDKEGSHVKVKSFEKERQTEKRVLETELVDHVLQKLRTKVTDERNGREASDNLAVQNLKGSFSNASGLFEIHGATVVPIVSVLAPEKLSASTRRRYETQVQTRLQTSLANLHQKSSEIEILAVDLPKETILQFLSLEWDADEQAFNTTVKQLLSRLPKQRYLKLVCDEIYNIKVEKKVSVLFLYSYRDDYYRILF
Description: radiometric HotSpot kinase assay. The class given is biochemical. The conditions noted are these: ATP at the ATP Km of GCN2; means of two independent experiments. How it is done: (§1) Compounds 1–9 were screened in a radiometric […] kinase assay against human GCN2 and other kinases involved in the UPR and ISR pathways (Table 1). […] The most soluble of the potent tool compounds (1 and 2) were selected for in vitro cell-based assays where the phosphorylation of eIF2α (p-eIF2α) was used as a readout for GCN2 inhibition.
(§2) In vitro compound profiling for recombinant GCN2, PERK, HRI, PKR, or IRE1 kinases were performed at Reaction Biology Corporation (Malvern, PA) using the HotSpot kinase assay. Briefly, all compounds provided for testing were dissolved in 10 mM DMSO stock solutions. Serial dilutions were conducted by epMotion 5070 in DMSO. Specific kinase/substrate mixtures and required cofactors were prepared in reaction buffer (20 mM Hepes (pH 7.5), 10 mM MgCl2, 1 mM EGTA, 0.02% Brij35, 0.02 mg/ml BSA, 0.1 mM Na3VO4, 2 mM DTT, 1% DMSO). Compounds were added to the kinase reaction mixture by Acoustic technology (Echo550; nanoliter range) and incubated for 20 min at room temperature. The kinase reaction was initiated by adding ^33P ATP to a final concentration of 10 μM for single point kinase activity reading or to the ATP Km of GCN2 for IC50 readings. The reaction was incubated or 2 h at room temperature and kinase activity was detected by filter-binding method. IC50 values and curves were generated with GraphPad Prism 7 (GraphPad software).

In a further data set the target is T2, PERK (Homo sapiens, UniProt Q9NZJ5).
T2 construct: purchased Reaction Biology Corporation (Malvern, PA)
T2 sequence (Q9NZJ5 30-1116): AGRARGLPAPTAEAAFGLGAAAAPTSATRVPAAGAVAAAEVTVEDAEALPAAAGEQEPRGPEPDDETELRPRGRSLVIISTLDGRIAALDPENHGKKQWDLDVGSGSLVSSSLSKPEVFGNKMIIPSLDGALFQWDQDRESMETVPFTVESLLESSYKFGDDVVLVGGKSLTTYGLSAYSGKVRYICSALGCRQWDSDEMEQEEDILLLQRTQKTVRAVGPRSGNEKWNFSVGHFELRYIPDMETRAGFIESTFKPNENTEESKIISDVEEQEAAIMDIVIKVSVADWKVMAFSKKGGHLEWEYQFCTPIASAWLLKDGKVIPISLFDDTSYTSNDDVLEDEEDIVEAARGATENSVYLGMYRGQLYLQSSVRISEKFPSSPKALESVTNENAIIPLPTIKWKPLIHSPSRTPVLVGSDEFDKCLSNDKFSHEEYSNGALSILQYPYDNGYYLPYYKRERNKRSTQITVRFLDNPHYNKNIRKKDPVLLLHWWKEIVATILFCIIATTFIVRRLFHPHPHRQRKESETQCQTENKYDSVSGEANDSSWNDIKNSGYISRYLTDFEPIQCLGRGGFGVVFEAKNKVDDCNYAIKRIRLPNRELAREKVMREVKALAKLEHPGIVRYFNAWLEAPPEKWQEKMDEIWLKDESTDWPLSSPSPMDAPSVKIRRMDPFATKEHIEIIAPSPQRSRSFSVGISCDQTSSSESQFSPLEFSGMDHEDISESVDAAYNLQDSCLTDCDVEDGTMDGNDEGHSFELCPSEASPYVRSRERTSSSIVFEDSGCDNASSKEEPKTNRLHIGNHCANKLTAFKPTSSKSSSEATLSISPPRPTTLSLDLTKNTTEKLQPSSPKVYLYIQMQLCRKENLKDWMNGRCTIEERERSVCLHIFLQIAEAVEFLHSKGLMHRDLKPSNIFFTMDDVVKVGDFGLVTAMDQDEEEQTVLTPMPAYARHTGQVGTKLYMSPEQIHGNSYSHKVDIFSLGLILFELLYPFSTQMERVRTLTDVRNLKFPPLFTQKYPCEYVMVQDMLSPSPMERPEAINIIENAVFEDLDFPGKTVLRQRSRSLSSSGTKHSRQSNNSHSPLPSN
Description: radiometric HotSpot kinase assay. Format: biochemical. The note with it: read-out: % Enzyme inhibition at 10 μM, PERK. The procedure: as §2, with “Serial dilutions were conducted by epMotion 5070 in DMSO.” left out, “The kinase reaction was initiated by adding ^33P ATP to a final concentration of 10 μM for single point kinase activity reading or to the ATP Km of GCN2 for IC50 readings.” left out

The test system of a further data set is GCN2. On the set-up: method as in PMID 25587754. The conditions noted are these: biochemical inhibition of kinase activity; cited from earlier work.
The target of a further data set is T3, HRI (Homo sapiens, UniProt Q9BQI3).
T3 construct: purchased Reaction Biology Corporation (Malvern, PA)
T3 sequence (Q9BQI3 whole entry): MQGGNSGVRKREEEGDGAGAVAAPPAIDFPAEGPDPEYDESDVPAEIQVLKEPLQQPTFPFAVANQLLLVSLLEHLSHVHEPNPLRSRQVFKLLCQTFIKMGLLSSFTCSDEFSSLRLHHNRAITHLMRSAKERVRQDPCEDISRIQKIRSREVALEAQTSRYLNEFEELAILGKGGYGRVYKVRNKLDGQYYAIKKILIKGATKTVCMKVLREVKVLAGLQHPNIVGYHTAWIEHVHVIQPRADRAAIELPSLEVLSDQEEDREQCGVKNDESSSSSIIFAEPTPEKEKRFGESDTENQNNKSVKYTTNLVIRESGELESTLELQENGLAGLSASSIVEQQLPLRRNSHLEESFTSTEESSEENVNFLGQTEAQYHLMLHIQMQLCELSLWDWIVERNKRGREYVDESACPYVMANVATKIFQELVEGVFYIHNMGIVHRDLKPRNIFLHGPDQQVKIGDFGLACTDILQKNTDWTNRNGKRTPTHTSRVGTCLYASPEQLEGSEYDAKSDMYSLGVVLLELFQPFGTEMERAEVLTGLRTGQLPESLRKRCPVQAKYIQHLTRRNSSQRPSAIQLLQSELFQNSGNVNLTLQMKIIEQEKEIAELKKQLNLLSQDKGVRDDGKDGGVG
Description: radiometric HotSpot kinase assay. The conditions noted are these: 10 μM compound, 10 μM ATP; read-out: % Enzyme inhibition at 10 μM, HRI. The class given is biochemical. How it is done: as §1, §2

The target of the next data set is T4, IRE1 (Homo sapiens, UniProt O75460).
T4 construct: purchased Reaction Biology Corporation (Malvern, PA)
T4 sequence (O75460 19-977): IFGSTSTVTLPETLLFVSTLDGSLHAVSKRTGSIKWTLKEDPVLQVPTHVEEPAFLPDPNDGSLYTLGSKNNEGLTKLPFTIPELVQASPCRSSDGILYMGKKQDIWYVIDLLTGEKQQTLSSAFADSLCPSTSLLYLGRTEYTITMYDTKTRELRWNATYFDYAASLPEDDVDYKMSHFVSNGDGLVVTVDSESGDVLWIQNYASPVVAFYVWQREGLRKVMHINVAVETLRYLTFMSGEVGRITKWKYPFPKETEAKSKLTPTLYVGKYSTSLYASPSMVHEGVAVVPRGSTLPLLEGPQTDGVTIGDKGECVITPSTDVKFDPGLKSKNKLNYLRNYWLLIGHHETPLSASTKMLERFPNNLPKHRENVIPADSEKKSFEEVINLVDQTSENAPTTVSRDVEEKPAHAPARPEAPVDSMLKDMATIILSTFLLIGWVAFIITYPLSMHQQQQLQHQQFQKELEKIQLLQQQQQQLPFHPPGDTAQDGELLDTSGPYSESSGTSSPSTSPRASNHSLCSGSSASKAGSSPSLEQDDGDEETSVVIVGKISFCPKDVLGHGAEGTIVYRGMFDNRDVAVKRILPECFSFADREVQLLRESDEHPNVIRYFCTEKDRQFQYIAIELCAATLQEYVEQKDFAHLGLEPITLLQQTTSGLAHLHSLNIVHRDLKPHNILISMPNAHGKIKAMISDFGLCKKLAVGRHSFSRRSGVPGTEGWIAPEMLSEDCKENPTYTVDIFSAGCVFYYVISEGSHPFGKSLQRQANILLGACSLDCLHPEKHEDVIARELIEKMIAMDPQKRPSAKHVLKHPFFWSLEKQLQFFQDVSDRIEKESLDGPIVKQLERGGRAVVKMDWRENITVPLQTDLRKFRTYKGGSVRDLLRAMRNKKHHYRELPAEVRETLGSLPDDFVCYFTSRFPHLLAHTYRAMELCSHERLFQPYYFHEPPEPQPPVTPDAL
Description: radiometric HotSpot kinase assay. The class given is biochemical. The note with it: 10 μM compound, 10 μM ATP; read-out: % Enzyme inhibition at 10 μM, IRE1. The procedure:
as §1, §2

The target in a further data set is T5, PKR (Homo sapiens, UniProt P19525).
T5 construct: purchased Reaction Biology Corporation (Malvern, PA)
T5 sequence (P19525 whole entry): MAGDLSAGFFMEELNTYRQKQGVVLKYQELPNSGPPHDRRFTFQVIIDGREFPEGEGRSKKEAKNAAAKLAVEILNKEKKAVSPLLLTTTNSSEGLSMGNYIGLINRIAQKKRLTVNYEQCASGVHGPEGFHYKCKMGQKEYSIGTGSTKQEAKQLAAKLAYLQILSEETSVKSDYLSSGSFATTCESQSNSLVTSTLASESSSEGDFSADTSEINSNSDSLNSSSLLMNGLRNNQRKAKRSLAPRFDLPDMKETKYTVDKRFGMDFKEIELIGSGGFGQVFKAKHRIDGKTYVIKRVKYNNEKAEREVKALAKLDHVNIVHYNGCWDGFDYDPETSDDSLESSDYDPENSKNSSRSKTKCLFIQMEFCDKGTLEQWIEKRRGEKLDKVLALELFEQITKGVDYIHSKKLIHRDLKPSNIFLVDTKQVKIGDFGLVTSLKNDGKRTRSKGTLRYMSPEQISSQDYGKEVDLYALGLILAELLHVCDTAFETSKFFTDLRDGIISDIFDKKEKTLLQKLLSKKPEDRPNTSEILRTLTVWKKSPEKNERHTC
Briefly: radiometric HotSpot kinase assay. Format: biochemical. The conditions noted are these: 10 μM compound, 10 μM ATP; read-out: % Enzyme inhibition at 10 μM, PKR. The procedure: as §1, §2

A further data set in a line: Kinetic solubility assay. Format: physicochemical. The conditions noted are these: aqueous buffer, kinetic from dmso stock; PBS pH 7.4, 25 °C, 2 h. The procedure: Compound solubility was determined in PBS at pH 7.4 by Pharmaron, Inc. (Beijing, China). Briefly, all compounds and control solutions were prepared in DMSO at concentrations of 10 mM. Diclofenac was used as a positive control. 10 μL or 30 μL of each compound was added into a 96-well plate, followed by adding 990 μL or 970 μL, respectively, of PBS at pH 7.4. A stir stick was added to each well and wells were sealed using a molded PTDE/SIL 96-Well Plate Cover. […] After incubation the samples were transferred into the filter plate and filtered by Vacuum Manifold. The filtered samples were diluted with methanol to obtain 3 μM standards (STD). The samples were analyzed by LC-MS/MS against a standard of known concentration in DMSO. The solubility values of duplicate test compounds were calculated in Microsoft Excel using the following equation, where DF means dilution factor: Sample=AREASample×INJVOLStd×DFSample×STD/AREAStd×INJVOLSample

The nature of data set [1]: Permeability assay (PAMPA). The class given is in vitro ADME. The note with it: pH 7.4, 25 °C, <10 low, >10 high permeability. The procedure: GCN2 compound permeability was determined by PAMPA and was performed by Pharmaron, Inc. (Beijing, China). All compounds and control stock solutions were prepared in DMSO at a concentration of 10 mM. Testosterone and methotrexate were used as control compounds. Compound stock solutions were diluted with PBS (pH 7.4) to a final concentration of 10 μM. A 1.8% solution (w/v) of lecithin in dodecane was prepared and sonicated to ensure a complete dissolution. 5 μL of the lecithin/dodecane mixture were pipetted into each acceptor plate well (top compartment). Immediately after the application of the artificial membrane (within 10 min), 300 μL of PBS (pH 7.4) solution were added to each well of the acceptor plate. 300 μL of drug-containing solutions were added to each well of the donor plate (bottom compartment) in triplicate. The plate lid was replaced and incubated at 25 °C, 60 rpm for 16 h. After incubation, aliquots of 50 μL from each well of acceptor and donor plate were transferred into a 96-well plate and 200 μL of methanol (containing IS: 100 nM Alprazolam, 200 nM Labetalol and 2 μM Ketoprofen) was added to each well. The plate was vortexed at 750 rpm for 100 s. Samples were centrifuged at 3220g for 20 min. The compound concentrations were determined by LC/MS/MS. The effective permeability (Pe), in units of centimeter per second were calculated using the following equation: logPe=logC×−ln1−drugacceptor/drugequilibrium

Turning to `CCOc1ccc(-n2nnc3cnc(Nc4cnn([C@H]5CC[C@H](O)CC5)c4)nc32)cc1` [Compound 7, trans-4-(4-((3-(4-Ethoxyphenyl)-3H-[1,2,3]triazolo[4,5-d]pyrimidin-5-yl)amino)-1H-pyrazol-1-yl)cyclohexan-1-ol], the IC50 at human GCN2 turned out to be 22.4 nM. Further, the inhibition at 10 µM at PERK (10 μM compound, 10 μM ATP) turned out to be 24%.

As to `CNc1ncc2c(F)c(-c3c(C)ccc(C(=O)c4c(-c5ccccc5)n(C)n(-c5ccccc5)c4=O)c3N)ccc2n1` [4-{2-amino-3-[5-fluoro-2-(methylamino)quinazolin-6-yl]-4-methylbenzoyl}-1-methyl-2,5-diphenyl-1,2-dihydro-3H-pyrazol-3-one], the IC50 with GCN2 is 36 nM.

Take `COC(=O)c1ccc(-n2nnc3cnc(Nc4cnn([C@H]5CC[C@H](O)CC5)c4)nc32)cc1` [Compound 9, methyl 4-(5-((1-(trans-4-hydroxycyclohexyl)-1H-pyrazol-4-yl)amino)-3H-[1,2,3]triazolo[4,5-d]pyrimidin-3-yl)benzoate]: the inhibition at 10 µM at HRI is below 10%; on IRE1, 24%; on PKR, 95%; on PERK (10 μM compound, 10 μM ATP) it was 14%. On human GCN2, this compound yielded an IC50 of 46.4 nM. The concentration in solution in the data set “Kinetic solubility assay” (solubility at 2 h) was 0.17 µM (≈ 0.0739 µg/mL). This compound came in with a Papp at 16 h, 10 μM in data set [1] of 2.29 ×10⁻⁶ cm/s.

Take `CCOc1ccc(-n2nnc3cnc(Nc4cnn(C5CCOCC5)c4)nc32)cc1` [Compound 3, 3-(4-Ethoxyphenyl)-N-(1-(tetrahydro-2H-pyran-4-yl)-1H-pyrazol-4-yl)-3H-[1,2,3]triazolo[4,5-d]pyrimidin-5-amine]: at human GCN2, the midpoint of inhibition, the IC50, lay at 44.5 nM. The inhibition at 10 µM at PERK (10 μM compound, 10 μM ATP) was 25%.

For `Cc1cccc(CC(=O)N2CCc3c2ccc(-c2cn(C)c4ncnc(N)c24)c3F)n1` [GSK2656157, reference compound], the IC50 at human GCN2 is above 10000 nM. Further, the inhibition at 10 µM on PERK came out at 100%.

Turning to `O[C@H]1CC[C@H](n2cc(Nc3ncc4nnn(-c5ccc(Cl)c(F)c5)c4n3)cn2)CC1` [Compound 8, trans-4-(4-((3-(4-chloro-3-fluorophenyl)-3H-[1,2,3]triazolo[4,5-d]pyrimidin-5-yl)amino)-1H-pyrazol-1-yl)cyclohexan-1-ol], the inhibition at 10 µM is below 10% on HRI; 15% at IRE1; 98% on PKR; below 10% at PERK (10 μM compound, 10 μM ATP). For the same compound, the IC50 on human GCN2 amounted to 21.1 nM. Moreover, in “Kinetic solubility assay”, the concentration in solution (solubility at 2 h) was 0.1 µM (≈ 0.0429 µg/mL). In data set [1], this compound displayed a Papp at 16 h, 10 μM of 4.68 ×10⁻⁶ cm/s.

Regarding `Fc1cc(-n2nnc3cnc(Nc4cnn(C5CCOCC5)c4)nc32)ccc1Cl` [Compound 4, 3-(4-Chloro-3-fluorophenyl)-N-(1-(tetrahydro-2H-pyran-4-yl)-1H-pyrazol-4-yl)-3H-[1,2,3]triazolo[4,5-d]pyrimidin-5-amine], the inhibition at 10 µM on HRI was below 10%; on IRE1, 18%; on PKR, 96%; on PERK (10 μM compound, 10 μM ATP), below 10%. This compound also returned an IC50 at human GCN2 of 25.7 nM. The same compound came in with a solubility at 2 h in “Kinetic solubility assay” of 0.05 µM (≈ 0.0207 µg/mL). For the same compound, the Papp at 16 h, 10 μM in data set [1] came to 2.19 ×10⁻⁶ cm/s.

`c1nn(C2CCOCC2)cc1Nc1ncc2nnn(-c3ccc4cn[nH]c4c3)c2n1` [Compound 6, 3-(1H-Indazol-6-yl)-N-(1-(tetrahydro-2H-pyran-4-yl)-1H-pyrazol-4-yl)-3H-[1,2,3]triazolo[4,5-d]pyrimidin-5-amine] returned an IC50 on human GCN2 of 20.5 nM. In addition, at PERK (10 μM compound, 10 μM ATP), the inhibition at 10 µM was found to be 35%.

With `COC(=O)c1ccc(-n2nnc3cnc(Nc4cnn(C5CCOCC5)c4)nc32)cc1` [Compound 5, Methyl 4-(5-((1-(tetrahydro-2H-pyran-4-yl)-1H-pyrazol-4-yl)amino)-3H-[1,2,3]triazolo[4,5-d]pyrimidin-3-yl)benzoate], the inhibition at 10 µM is below 10% at HRI; 22% on IRE1; 96% on PKR; below 10% at PERK (10 μM compound, 10 μM ATP). This compound showed an IC50 at human GCN2 of 17.2 nM. This compound also yielded a solubility at 2 h in “Kinetic solubility assay” of 0.2 µM (≈ 0.0841 µg/mL). For the same compound, in data set [1], the Papp at 16 h, 10 μM is 10.5 ×10⁻⁶ cm/s.
